In ChEMBL document CHEMBL5728837, “Non-fused tricyclic compounds” (2021):

experiment: YAP Reporter Assay: HEK293T cells stably transfected with 8XTBD luciferase reporter and pRLTK in 384-well plates were treated with the test compounds, starting from 3 μM (final concentration in assay plate), 1:3 dilution, and 10 points in quadruplicates. Post 24-hr incubation with compounds at 37° C. and 5% CO2, cells were lysed and 8XTBD-driven firefly luciferase and control TK-driven renilla luciferase activities were measured using Promega Dual-Luciferase Reporter Assay System.Reagents: The reagents used for this study are: DMEM: Invitrogen #11960077, Dual-Glo Luciferase Assay System: Promega-E2980, Puromycin Dihydrochloride: Invitrogen-A1113803, 384-well plate: PerkinElmer-6007480, L-GLUTAMINE: Invitrogen-25030164, Hygromycin B: Invitrogen-10687010, and Penicillin-Streptomycin: Merk-TMS-AB2-CMedia: The media used for this assay were: Culture Medium: DMEM+1 ug/mL puromycin+200 ug/mL hygromycin (with 10% FBS+1 mM L-glutamine); and Assay Medium: DMEM (with 10% FBS+1 mM L-glutamine+1× P/S).Cell Plating: The appropriate media was warmed at 37° C. by water bath: Culture Medium, Assay Medium, 1*D-PBS, 0.05% trypsin-EDTA. The cells were trypsinized after removing all media, then washed with 1*sterile D-PBS and then with 2 ml 0.05% trypsin-EDTA. The cells were then incubated at RT for one minute. Then 10 ml/75 cm2 flask Assay Medium was added to each flask. Using a 10 ml pipette, the cells were then gently resuspended in the media, until the clumps completely disappeared. The cells were then transferred into 50 ml centrifuge tubes and were centrifuged at 800 rpm for 5 mins. The medium was removed and the cells were resuspended with Assay Medium. An aliquot of cells was used to count the cell density (cells/nil). The cell suspension was then diluted with Assay Medium to a concentration of 6×10^4 cells/ml. 50 ul cells suspension was then plated to 384-well plate (PerkinElmer-6007480), 3×10^3 cells/well and the cells were incubated in an incubator at 37° C., 5% CO2.Compound Treatment: In the afternoon (incubation of the plate with 3-4 hrs), the test compounds were added by Echo, starting from 3 uM (final concentration in the assay plate), 1:3 dilution, 10 points, quadruplicates. The plate was placed at 37° C., 5% CO2 incubator for 24 hrs.Detection: The Dual-Glo Luciferase Reagent was prepared by transferring the contents of one bottle of Dual-Glo Luciferase Buffer to one bottle of Dual-Glo Luciferase Substrate to create the Dual-Glo Luciferase Reagent. Mixing was performed by inversion until the substrate was thoroughly dissolved. After mixing, the reagent was aliquoted into 15 ml tubes. In the afternoon (24 hrs post compound treatment), the DMEM+ medium in the 384 well plates were aspirated by Microplate Washer.Measuring firefly luciferase activity: 20 ul Dual-Glo Luciferase Reagent was added to the 384-well plates. The plates were protected from light to prevent interference with the assay. The plates were shaken for 1 min followed centrifuging plates at 1000 rpm for 30 seconds. After waiting at least 10 minutes, the firefly luminescence was measured by Envision.Measuring renilla luciferase activity: 20 ul Stop-Glo Reagent was added to the 384-well plates. The plates were shaken for lmin and then centrifuged at 1000 rpm for 30 seconds. After waiting at least 10 minutes, the renilla luminescence was measured by Envision.; settings: not given

Compound | IC50
OCCn1nnc(-c2ccccc2Nc2cccc(C(F)(F)F)c2)n1 | in the range around 3000 nM

same assay, conditions: HEK-293T, 24 h

Compound | IC50
CC(=O)NCCCn1nnc(-c2ccccc2Nc2ccc(C(F)(F)F)cc2)n1 | in the range around 550 nM
OCCn1nnc(-c2cc(F)ccc2Nc2ccc(C(F)(F)F)cc2)n1 | < 100 nM
O[C@@H]1CNC[C@H]1n1nnc(-c2ccccc2Nc2ccc(C(F)(F)F)cc2)n1 | in the range around 550 nM
OCCn1nnc(-c2cc(C3CC3)ccc2Nc2ccc(C(F)(F)F)cc2)n1 | < 100 nM
NCCCn1nnc(-c2ccccc2Nc2ccc(C(F)(F)F)cc2)n1 | in the range around 550 nM
CCOC(=O)Cn1ncc(-c2ccccc2Nc2ccc(C(F)(F)F)cc2)c1C | < 100 nM
OC1(Cn2nnc(-c3ccccc3Nc3ccc(C(F)(F)F)cc3)n2)CCN(c2ccccc2)C1 (centres undefined) | in the range around 3000 nM
NS(=O)(=O)Cn1nnc(-c2ccccc2Nc2ccc(C(F)(F)F)cc2)n1 | in the range around 550 nM
C[C@@H](O)[C@H](C)n1nnc(-c2ccccc2Nc2ccc(C(F)(F)F)cc2)n1 | < 100 nM
NCCn1cnc(-c2ccccc2Nc2ccc(C(F)(F)F)cc2)n1 | in the range around 550 nM
OCCn1nnc(-c2ccccc2Nc2ccc(F)cc2F)n1 | in the range around 550 nM
OCCn1nnc(-c2ccccc2Nc2cccc(C(F)(F)F)c2)n1 | in the range around 3000 nM
OCCn1cnc(-c2ccccc2Nc2ccc(C(F)(F)F)cc2)c1 | in the range around 550 nM
CNCCn1nnc(-c2ccccc2Nc2ccc(C(F)(F)F)cc2)n1 | in the range around 550 nM
OCCn1nnc(-c2cnccc2Nc2ccc(C(F)(F)F)cc2)n1 | in the range around 3000 nM
Cn1nc(-c2ccccc2Nc2ccc(C(F)(F)F)cc2)cc1CCO | in the range around 3000 nM
OC1(Cn2nnc(-c3ccccc3Nc3ccc(C(F)(F)F)cc3)n2)CCNC1 (centres undefined) | in the range around 550 nM
[N-]=[N+]=Nc1ccc(Nc2ccccc2-c2nnn(CCO)n2)cc1 | in the range around 550 nM
COCCn1nnc(-c2ccccc2Nc2ccc(C(F)(F)F)cc2)n1 | < 100 nM
FC(F)(F)c1ccc(Nc2ccccc2-c2nnn(-c3cccnc3)n2)cc1 | in the range around 3000 nM
Cn1nc(-c2ccccc2Nc2ccc(C(F)(F)F)cc2)nc1CCO | in the range around 3000 nM
CC(N)Cn1nnc(-c2ccccc2Nc2ccc(C(F)(F)F)cc2)n1 (centres undefined) | in the range around 550 nM
OC1(Cn2nnc(-c3ccccc3Nc3ccc(C(F)(F)F)cc3)n2)CCCC1 | < 100 nM
CCOC(=O)Cn1cnc(-c2ccccc2Nc2ccc(C(F)(F)F)cc2)c1 | in the range around 550 nM
COCCn1nnc(-c2ccccc2Nc2cccc(C(F)(F)F)c2)n1 | in the range around 3000 nM
O[C@@H]1CCC[C@@H]1n1nnc(-c2ccccc2Nc2ccc(C(F)(F)F)cc2)n1 | in the range around 550 nM

Compound | IC50
OCCn1nnc(-c2cc(C(F)(F)F)ccc2Nc2ccc(C(F)(F)F)cc2)n1 | in the range around 550 nM
FC(F)(F)Oc1ccc(Nc2ccccc2-c2nnn(Cc3cccnc3)n2)cc1 | in the range around 3000 nM
O=C1NC(Cn2nnc(-c3ccccc3Nc3ccc(C(F)(F)F)cc3)n2)CO1 (centres undefined) | in the range around 550 nM
CC(=O)N1CCC(O)(Cn2nnc(-c3ccccc3Nc3ccc(C(F)(F)F)cc3)n2)C1 (centres undefined) | in the range around 550 nM
C[C@H](c1ccccc1)N1C(=O)OC[C@H]1Cn1nnc(-c2ccccc2Nc2ccc(C(F)(F)F)cc2)n1 | in the range around 550 nM
OCCn1nnc(-c2ccccc2Nc2ccc(SC(F)(F)F)cc2)n1 | in the range around 550 nM
CN(C)C(=O)Cn1nnc(-c2ccccc2Nc2ccc(C(F)(F)F)cc2)n1 | in the range around 550 nM
COCC(C)n1nnc(-c2ccccc2Nc2ccc(C(F)(F)F)cc2)n1 (centres undefined) | < 100 nM
OCCn1nnc(-c2ccccc2Nc2ccc(Br)cc2)n1 | in the range around 550 nM
OC1(Cn2nnc(-c3ccccc3Nc3ccc(C(F)(F)F)cc3)n2)COC1 | < 100 nM
CCc1cccc(Nc2ccccc2-c2nnn(CCO)n2)c1 | in the range around 550 nM
CC(=O)N1CC(O)(Cn2nnc(-c3ccccc3Nc3ccc(C(F)(F)F)cc3)n2)C1 | in the range around 550 nM
CO[C@H](C)[C@H](C)n1nnc(-c2ccccc2Nc2ccc(C(F)(F)F)cc2)n1 | in the range around 550 nM
O=C(Cn1nnc(-c2ccccc2Nc2ccc(C(F)(F)F)cc2)n1)N1CCCC1 | in the range around 550 nM
CNC(=O)Cn1nnc(-c2ccccc2Nc2ccc(C(F)(F)F)cc2)n1 | < 100 nM
CCOC(=O)Cn1ncc(-c2ccccc2Nc2cccc(C(F)(F)F)c2)c1C | in the range around 3000 nM
CCOC(=O)Cn1cc(-c2ccccc2Nc2ccc(C(F)(F)F)cc2)c(C)n1 | in the range around 550 nM
OCCn1nnc(-c2ccccc2Nc2ccc(OC(F)(F)F)cc2)n1 | < 100 nM
CO[C@@H](C)[C@H](C)n1nnc(-c2ccccc2Nc2ccc(C(F)(F)F)cc2)n1 | < 100 nM
OC1(Cn2nnc(-c3ccccc3Nc3ccc(C(F)(F)F)cc3)n2)CSC1 | < 100 nM
OCCn1nnc(-c2ccccc2Nc2ccc(Cl)c(Cl)c2)n1 | in the range around 550 nM
C[C@H](O)[C@H](C)n1nnc(-c2ccccc2Nc2ccc(C(F)(F)F)cc2)n1 | < 100 nM
CC(C)(C)OC(=O)N1CCCC(O)(Cn2nnc(-c3ccccc3Nc3ccc(C(F)(F)F)cc3)n2)C1 (centres undefined) | in the range around 3000 nM
FC(F)(F)c1ccc(Nc2ccccc2-c2nnn(CC3COC3)n2)cc1 | in the range around 550 nM
NCCn1nnc(-c2ccccc2Nc2ccc(C(F)(F)F)cc2)n1 | in the range around 550 nM
FC(F)(F)c1ccc(Nc2ccccc2-c2nnn(CCOC3CCNCC3)n2)cc1 | in the range around 550 nM

Compound | IC50
[O-][S+]1CC(O)(Cn2nnc(-c3ccccc3Nc3ccc(C(F)(F)F)cc3)n2)C1 (centres undefined) | in the range around 550 nM
CS(=O)(=O)NCCCn1nnc(-c2ccccc2Nc2ccc(C(F)(F)F)cc2)n1 | in the range around 3000 nM
CNC(=O)Cn1nnc(-c2ccccc2Nc2ccc(OC(F)(F)F)cc2)n1 | in the range around 550 nM
OC1(Cn2nnc(-c3ccccc3Nc3ccc(C(F)(F)F)cc3)n2)CCOC1 (centres undefined) | < 100 nM
OCCn1nnc(-c2cc(OC(F)(F)F)ccc2Nc2ccc(C(F)(F)F)cc2)n1 | in the range around 550 nM
OC1(Cn2nnc(-c3ccccc3Nc3ccc(C(F)(F)F)cc3)n2)CCC1 | < 100 nM
CC(C)(O)Cn1nnc(-c2ccccc2Nc2ccc(C(F)(F)F)cc2)n1 | < 100 nM
OCCn1nnc(-c2ccc(Cl)cc2Nc2ccc(C(F)(F)F)cc2)n1 | < 100 nM
O[C@H]1CCC[C@H]1n1nnc(-c2ccccc2Nc2ccc(C(F)(F)F)cc2)n1 | < 100 nM
CC(O)Cn1nnc(-c2ccccc2Nc2ccc(C(F)(F)F)cc2)n1 (centres undefined) | < 100 nM
Cc1c(-c2ccccc2Nc2ccc(C(F)(F)F)cc2)cnn1CCO | in the range around 3000 nM
CC(=O)NCCn1nnc(-c2ccccc2Nc2ccc(C(F)(F)F)cc2)n1 | in the range around 550 nM
OCCn1nnc(-c2ccccc2Nc2cc(Cl)c(Cl)c(Cl)c2)n1 | in the range around 3000 nM
CC(C)C(=O)Cn1nnc(-c2ccccc2Nc2ccc(C(F)(F)F)cc2)n1 | in the range around 550 nM
OCCn1nnc(-c2cccnc2Nc2ccc(C(F)(F)F)cc2)n1 | in the range around 550 nM
FC(F)(F)c1ccc(Nc2ccccc2-c2nnn(CC3CCC3)n2)cc1 | in the range around 550 nM
FCCn1nnc(-c2ccccc2Nc2ccc(C(F)(F)F)cc2)n1 | in the range around 550 nM
OC(Cn1nnc(-c2ccccc2Nc2ccc(C(F)(F)F)cc2)n1)C1CC1 (centres undefined) | < 100 nM
OC1(Cn2nnc(-c3ccccc3Nc3ccc(C(F)(F)F)cc3)n2)CCCOC1 (centres undefined) | in the range around 550 nM
COc1ccc(Nc2ccccc2-c2nnn(CCO)n2)cc1 | in the range around 550 nM
OCCn1nnc(-c2ccccc2Nc2ccc(F)c(F)c2)n1 | in the range around 550 nM
FC(F)OCCn1nnc(-c2ccccc2Nc2ccc(C(F)(F)F)cc2)n1 | in the range around 550 nM
C[C@H]([C@@H](C)O)n1nnc(-c2ccccc2Nc2ccc(C(F)(F)F)cc2)n1 | < 100 nM
OCCn1nnc(-c2ccccc2Nc2ccc(Cl)cc2)n1 | in the range around 550 nM
OC1(Cn2nnc(-c3ccccc3Nc3ccc(C(F)(F)F)cc3)n2)CCCN(c2ccccc2)C1 (centres undefined) | in the range around 550 nM
CN(C)CCCn1nnc(-c2ccccc2Nc2ccc(OC(F)(F)F)cc2)n1 | in the range around 3000 nM
